Residues, ends and D or L forms follow the SMILES beside them.
Key:
[1] = system: Pseudomonas aeruginosa PAO1 strain H103; assay type: cell-based; conditions: laboratory strain P. aeruginosa PAO1
Method in brief: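 Modified broth microdilution MIC in Mueller Hinton medium, peptides diluted in 0.01% acetic acid/0.2% BSA, polypropylene plates. Inoculum 2-7×10^5 CFU/ml, overnight at 37 °C; MIC is the lowest concentration with no visible growth.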

ESBL E. cloacae = assay type: cell-based, Enterobacter cloacae
Method in brief: (§1)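 Modified broth microdilution in Mueller Hinton medium, peptides serially diluted in 0.01% acetic acid with 0.2% BSA in polypropylene plates. Inoculum 2-7×10^5 CFU/ml, overnight incubation at 37° C; MIC taken as lowest concentration with no visible growth.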

[2] = system: MCP-1 release by human PBMC; test: Chemokine induction in PBMC (capture ELISA); assay type: cell-based; conditions: background (204) subtracted
Method in brief: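 Heparinized blood from healthy volunteers; Ficoll-isolated human PBMC (7.5×10^5) treated with peptides at 20 or 100 μg/ml for 24 hours at 37° C, 5% CO2. Cell-free supernatants assayed for MCP-1 by capture ELISA.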

[3] = system: CXCL1 (Gro-α) release by human PBMC; test: Chemokine induction in PBMC (capture ELISA); assay type: cell-based; conditions: background (196) subtracted
Method in brief: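 Human PBMC from healthy donors' heparinised blood (Ficoll), 7.5×10^5 cells treated with 20 or 100 μg/ml peptide for 24 h at 37° C, 5% CO2. Cell-free supernatants assayed for CXCL1 by capture ELISA.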

[4] = system: MCP-3 release by human PBMC; test: Chemokine induction in PBMC (capture ELISA); assay type: cell-based; conditions: background (6) subtracted
Method in brief: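 Human PBMC from healthy donors (Ficoll-isolated), 7.5×10^5 cells at 0.75–1×10^6 cells/ml, treated with peptides at 20 or 100 μg/ml for 24 h at 37° C, 5% CO2. MCP-3 in cell-free supernatants measured by capture ELISA.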

[5] = system: multidrug resistant Brazilian clinical isolates of P. aeruginosa; assay type: cell-based, Pseudomonas aeruginosa
Method in brief: as §1

[6] = system: Liverpool Epidemic Strains; assay type: cell-based, Pseudomonas aeruginosa
Method in brief: as §1

[7] = system: clinical isolates of MRSA; assay type: cell-based, Staphylococcus aureus
Method in brief: as §1

[8] = system: ESBL Klebsiella pneumonia clinical strain 63575; assay type: cell-based
Method in brief: (§2)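 Broth microdilution in Mueller Hinton medium, peptides serially diluted in 0.01% acetic acid with 0.2% BSA in polypropylene plates. Inoculum 2-7×10^5 CFU/ml, incubated overnight at 37° C. MIC is the lowest concentration with no visible growth.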

[9] = system: VRE Vancomycin resistant Enterococcus faecalis clinical isolates; assay type: cell-based
Method in brief: as §2

[10] = system: VRE Vancomycin resistant Enterococcus faecium clinical isolates; assay type: cell-based
Method in brief: as §2

[11] = system: ESBL E. coli clinical strain 64771; assay type: cell-based; conditions: ESBL clinical strain 64771
Method in brief: as §2

[12] = system: multidrug resistant Pseudomonas maltophilia ATCC13637; assay type: cell-based
Method in brief: as §2

[13] = system: Enterococcus faecalis ATCC29212; assay type: cell-based; conditions: ATCC29212
Method in brief: (§3)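 MIC read as the concentration giving no visible growth after overnight incubation at 37° C. Peptides were diluted in 0.01% acetic acid containing 0.2% bovine serum albumin and tested in Mueller Hinton broth against 2-7×10^5 CFU/ml inoculum in polypropylene microtitre plates.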

[14] = system: Staphylococcus aureus ATCC25923; assay type: cell-based; conditions: ATCC25923
Method in brief: as §3

MIC (ESBL E. cloacae): >226 µM | MIC [5]: >226 µM | MIC [6]: >226 µM | MIC [7]: >226 µM | MIC [8]: >226 µM | MIC [9]: >226 µM | MIC [10]: >226 µM | MIC [11]: >226 µM | MIC [12]: >226 µM | MIC [13]: >226 µM | MIC [14]: >226 µM
SMILES: CC[C@H](C)[C@H](NC(=O)[C@H](CCCNC(=N)N)NC(=O)[C@@H](N)CCCCN)C(=O)N[C@@H](CCSC)C(=O)N[C@@H](CCCCN)C(=O)N[C@@H](CC(C)C)C(=O)N[C@@H](CCCCN)C(=O)N[C@@H](CCSC)C(=O)N[C@@H](CCCNC(=N)N)C(N)=O [HHC133, KRIMKLKMR] (H-KRIMKLKMR-NH2; N-terminus assumed)
antimicrobial activity against P. aeruginosa PAO1 (in words) [1]: did not return any generally active substances | Chemokine induction MCP-1 ([2]; 20 μg/ml peptide): 195 pg/mL | Chemokine induction MCP-1 ([2]; 100 μg/ml peptide): 444 pg/mL | Chemokine induction Gro-α ([3]; 20 μg/ml peptide): 15 pg/mL | Chemokine induction Gro-α ([3]; 100 μg/ml peptide): 81 pg/mL | Chemokine induction MCP-3 ([4]; 20 μg/ml peptide): 0 pg/mL | Chemokine induction MCP-3 ([4]; 100 μg/ml peptide): 2 pg/mL

From patent US8343475B2, “Small cationic antimicrobial peptides” (priority 2006, dated 2013)
